Laboratory results as given in ChEMBL document CHEMBL1124431, “Preparation and antitumor activity of additional mitomycin A analogues” (J Med Chem, 1989).

How the values were obtained:
[1] = Partition coefficient (logP); format: physicochemical; conditions: octanol/water
Mus musculus = species: Mus musculus; test: log(1/C) was estimated in mice; format: organism-based; conditions: in vivo
P388 [2] = test: Minimum effective dose was determined on P388 leukemia cells in mice; format: functional, Mus musculus; conditions: for minimal effective dose: Mus musculus, P388, read-out: MED
P388 [3] = test: Maximal effect of the given optimal dose of 3.2 mg/kg against P388 leukemia cells in mice; format: functional, Mus musculus
B16 [4] = test: Minimum effective dose was determined on B16 melanoma cells in mice; format: functional; conditions: Mus musculus, read-out: MED
B16 [5] = test: Maximal effect of the given optimal dose of 0.8 mg/kg against B16 melanoma cells in mice; format: functional, Mus musculus
P388 [6] = test: Maximal effect of the given optimal dose of 0.8 mg/kg against P388 leukemia cells in mice; format: functional, Mus musculus
P388 [7] = test: Maximal effect of the given optimal dose of 6.4 mg/kg against P388 leukemia cells in mice; format: functional, Mus musculus
P388 [8] = test: Maximal effect of the given optimal dose of 12.8 mg/kg against P388 leukemia cells in mice; format: functional, Mus musculus
B16 [9] = test: Maximal effect of the given optimal dose of 0.4 mg/kg against B16 melanoma in mice; format: functional, Mus musculus
P388 [10] = test: Maximal effect of the given optimal dose of 0.2 mg/kg against P388 leukemia cells in mice; format: functional, Mus musculus
P388 [11] = test: Maximal effect of the given optimal dose of 1.6 mg/kg against P388 leukemia cells in mice; format: functional, Mus musculus

SMILES	logP [1]	Log 1/C (Mus musculus)	MED (P388 [2]) [M/kg]	minimal effective dose (P388 [2]) [mg/kg]	T/C (P388 [3]) [%]	minimal effective dose (B16 [4]) [mg/kg]	T/C (B16 [5]) [%]	T/C (P388 [6]) [%]	T/C (P388 [7]) [%]	T/C (P388 [8]) [%]	T/C (B16 [9]) [%]	T/C (P388 [10]) [%]	T/C (P388 [11]) [%]
CO[C@@]12C(COC(N)=O)C3=C(C(=O)C(C)=C(OCc4cccs4)C3=O)N1CC1NC12 (stereo partly drawn)	2.07	5.15	7.13e-06	3.2	159								
CO[C@@]12C(COC(N)=O)C3=C(C(=O)C(C)=C(OC4CC4)C3=O)N1CC1NC12 (stereo partly drawn)	1.17	6.89	1.3e-07	0.05	172	0.8	138						
CO[C@@]12C(COC(N)=O)C3=C(C(=O)C(C)=C(OCCOCCCl)C3=O)N1CC1NC12 (stereo partly drawn)	1.18	7.21	6.2e-08	< 0.05	183	0.4	169						
CO[C@@]12C(COC(N)=O)C3=C(C(=O)C(C)=C(OCCSCCSCCO)C3=O)N1CC1NC12 (stereo partly drawn)	1.86	5.84	1.603e-06	0.8				140					
CCSCC(O)COC1=C(C)C(=O)C2=C(C1=O)C(COC(N)=O)[C@@]1(OC)C3NC3CN21 (stereo partly drawn)	1.25	6.37	4.33e-07	0.2	>322								
COCC(C)OC1=C(C)C(=O)C2=C(C1=O)C(COC(N)=O)[C@@]1(OC)C3NC3CN21 (stereo partly drawn)	0.79	6.21	4.81e-07	0.2				206					
CO[C@@]12C(COC(N)=O)C3=C(C(=O)C(C)=C(OCCCSCCCO)C3=O)N1CC1NC12 (stereo partly drawn)	3.49	6.98	1.02e-07	< 0.1					153				
CO[C@@]12C(COC(N)=O)C3=C(C(=O)C(C)=C(OCCNC(C)=O)C3=O)N1CC1NC12 (stereo partly drawn)	-0.21	6.03	9.32e-07	0.4						150			
CO[C@@]12C(COC(N)=O)C3=C(C(=O)C(C)=C(OCCC4OCCCO4)C3=O)N1CC1NC12 (stereo partly drawn)	0.82					< 0.3					154	117	
CO[C@@]12C(COC(N)=O)C3=C(C(=O)C(C)=C(OCCC4CCCN4C)C3=O)N1CC1NC12 (stereo partly drawn)	1.46	5.21	7.033e-06	3.2						>156			
CO[C@@]12C(COC(N)=O)C3=C(C(=O)C(C)=C(OCc4ccccn4)C3=O)N1CC1NC12 (stereo partly drawn)	0.91	6.04	9.2e-07	0.4				164					
CO[C@@]12C(COC(N)=O)C3=C(C(=O)C(C)=C(OCCSC)C3=O)N1CC1NC12 (stereo partly drawn)	1.37	6.02	9.57e-07	0.4									165
CO[C@@]12C(COC(N)=O)C3=C(C(=O)C(C)=C(OCCSCc4ccccc4)C3=O)N1CC1NC12 (stereo partly drawn)	3.58	6.37	4.25e-07	0.2					156				
CO[C@@]12C(COC(N)=O)C3=C(C(=O)C(C)=C(OCCSc4ccccc4)C3=O)N1CC1NC12 (stereo partly drawn)	3.12	5.17	6.73e-06	3.2						130			
CO[C@@]12C(COC(N)=O)C3=C(C(=O)C(C)=C(OC/C=C/CO)C3=O)N1CC1NC12 (stereo partly drawn)	0.46	6.21	4.83e-07	0.2	150								
CO[C@@]12C(COC(N)=O)C3=C(C(=O)C(C)=C(OCCN4CCSCC4)C3=O)N1CC1NC12 (stereo partly drawn)	2.07	6.67	2.06e-07	0.1					>172				
CO[C@@]12C(COC(N)=O)C3=C(C(=O)C(C)=C(OCCOc4ccccc4)C3=O)N1CC1NC12 (stereo partly drawn)	2.39	5.45	3.516e-06	1.6	130								
